The results in this text go back to patent US9283222B2 (priority 2006, dated 2016).

The test concerns the target Recombinant Human Poly(ADP-Ribose) Polymerase (PARP), PARP-1 (Homo sapiens (Human), UniProt P09874). As to conditions: read-out: PARP-1 (Ki); Table 1; text calls the values EC50s.

Sequence of Recombinant Human Poly(ADP-Ribose) Polymerase (PARP), PARP-1 (P09874 whole entry): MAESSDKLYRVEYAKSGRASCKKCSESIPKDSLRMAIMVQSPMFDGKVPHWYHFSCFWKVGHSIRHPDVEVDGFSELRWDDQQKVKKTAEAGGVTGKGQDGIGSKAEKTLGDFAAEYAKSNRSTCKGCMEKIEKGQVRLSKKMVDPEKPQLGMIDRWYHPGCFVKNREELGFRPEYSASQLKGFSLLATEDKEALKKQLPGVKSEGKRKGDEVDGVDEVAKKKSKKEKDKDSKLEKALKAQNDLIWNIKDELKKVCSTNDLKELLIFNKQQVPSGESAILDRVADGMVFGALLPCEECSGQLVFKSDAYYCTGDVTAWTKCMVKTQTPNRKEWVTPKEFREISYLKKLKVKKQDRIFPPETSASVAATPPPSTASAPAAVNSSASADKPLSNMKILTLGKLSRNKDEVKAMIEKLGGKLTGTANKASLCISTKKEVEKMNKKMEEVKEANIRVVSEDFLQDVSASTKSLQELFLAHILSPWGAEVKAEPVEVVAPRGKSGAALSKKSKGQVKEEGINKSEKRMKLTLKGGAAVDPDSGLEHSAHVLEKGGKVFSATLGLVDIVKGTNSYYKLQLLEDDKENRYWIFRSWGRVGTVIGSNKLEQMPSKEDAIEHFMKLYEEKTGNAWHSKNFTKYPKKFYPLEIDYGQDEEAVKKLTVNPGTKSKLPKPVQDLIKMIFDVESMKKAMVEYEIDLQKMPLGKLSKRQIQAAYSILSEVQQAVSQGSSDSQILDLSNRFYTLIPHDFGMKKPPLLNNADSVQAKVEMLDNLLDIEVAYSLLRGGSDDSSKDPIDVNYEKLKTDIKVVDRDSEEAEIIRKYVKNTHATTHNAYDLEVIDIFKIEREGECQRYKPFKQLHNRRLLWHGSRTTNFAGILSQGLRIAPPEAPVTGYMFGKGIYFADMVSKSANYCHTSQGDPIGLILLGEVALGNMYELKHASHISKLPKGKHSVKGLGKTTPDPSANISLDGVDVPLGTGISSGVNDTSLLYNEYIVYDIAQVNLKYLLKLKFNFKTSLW

On to `CN(C(=O)c1cc(Cc2n[nH]c(=O)c3c2NCCC3)ccc1F)C1CCN(C(=O)c2ccco2)CC1` [Example 715, 2-fluoro-N-[1-(2-furoyl)piperidin-4-yl]-N-methyl-5-[(5-oxo-1,2,3,4,5,6-hexahydropyrido[2,3-d]pyridazin-8-yl)methyl]benzamide], for which the Ki (as a rule, the equilibrium dissociation constant of an inhibitor or competing ligand from its target) was determined as 4 nM.

Regarding `CC(Cc1n[nH]c(=O)c2c1CCCC2)c1ccc(F)c(-c2cccc(C(=O)N3CCCC3)c2)c1` (stereo not shown) [Example 276, 4-(2-(6-fluoro-3′-(pyrrolidin-1-ylcarbonyl)-1,1′-biphenyl-3-yl)propyl)-5,6,7,8-tetrahydrophthalazin-1(2H)-one], the Ki was 943 nM.

On to `O=C(NC1CCCCC1)c1cccc(Cc2n[nH]c(=O)c3c2CCCC3)n1` [Example 84, N-cyclohexyl-6-((4-oxo-3,4,5,6,7,8-hexahydrophthalazin-1-yl)methyl)pyridine-2-carboxamide], for which the Ki turned out to be 617 nM.

On to `O=C(c1cccc(Cc2n[nH]c(=O)c3c2CCCC3)c1)N(CCO)Cc1ccccc1` [Example 424, N-benzyl-N-(2-hydroxyethyl)-3-((4-oxo-3,4,5,6,7,8-hexahydrophthalazin-1-yl)methyl)benzamide], for which the Ki came to 31 nM.

Turning to `O=C(Nc1cccc(Cc2n[nH]c(=O)c3c2CCCC3)c1)c1ccc2ccccc2c1` [Example 231, N-(3-((4-oxo-3,4,5,6,7,8-hexahydrophthalazin-1-yl)methyl)phenyl)-2-naphthamide], the Ki came out at 110 nM.

For `O=C1C2CC2C(=O)N1c1cc(Cc2n[nH]c(=O)c3c2CCCC3)ccc1F` (stereo not shown) [Example 291, 3-(2-fluoro-5-((4-oxo-3,4,5,6,7,8-hexahydrophthalazin-1-yl)methyl)phenyl)-3-azabicyclo(3.1.0)hexane-2,4-dione], the Ki came out at 0.7 nM.

On to `O=C(O)c1cc(Cc2n[nH]c(=O)c3c2NCCC3)ccc1F` [Example 468, 2-fluoro-5-((5-oxo-1,2,3,4,5,6-hexahydropyrido(2,3-d)pyridazin-8-yl)methyl)benzoic acid], for which the Ki came to 249 nM.

Consider `O=C(NCCc1cccc(Cl)c1)c1cccc(Cc2n[nH]c(=O)c3c2CCCC3)c1` [Example 389, N-(2-(3-chlorophenyl)ethyl)-3-((4-oxo-3,4,5,6,7,8-hexahydrophthalazin-1-yl)methyl)benzamide], for which the Ki was found to be 48 nM.

Regarding `O=C(NCCN1CCCCC1)c1cccc(Cc2n[nH]c(=O)c3c2CCCC3)c1` [Example 64, 3-((4-oxo-3,4,5,6,7,8-hexahydrophthalazin-1-yl)methyl)-N-(2-piperidin-1-ylethyl)benzamide], the Ki was determined as 40 nM.

Turning to `CN(CC1CCCCN1C)C(=O)c1cccc(Cc2n[nH]c(=O)c3c2CCCC3)c1` (stereo not shown) [Example 78, N-methyl-N-((1-methylpiperidin-2-yl)methyl)-3-((4-oxo-3,4,5,6,7,8-hexahydrophthalazin-1-yl)methyl)benzamide], the Ki came to 165 nM.

As for `CC(C)c1ccc(C(=O)Nc2cccc(Cc3n[nH]c(=O)c4c3CCCC4)c2)cc1` [Example 186, 4-isopropyl-N-(3-((4-oxo-3,4,5,6,7,8-hexahydrophthalazin-1-yl)methyl)phenyl)benzamide], the Ki came out at 160 nM.

`O=C(c1cc(Cc2n[nH]c(=O)c3c2NCCC3)ccc1F)N1CCN(C(=O)C2CCCCC2)CC1` [Example 568, 8-(3-{[4-(cyclohexylcarbonyl)piperazin-1-yl]carbonyl}-4-fluorobenzyl)-2,3,4,6-tetrahydropyrido[2,3-d]pyridazin-5(1H)-one]: the Ki was determined as 1.1 nM.

For `O=C(c1cc(Cc2n[nH]c(=O)c3c2CCCC3)ccc1F)N1CCN(c2ccccc2F)CC1` [Example 523, 4-(4-fluoro-3-{[4-(2-fluorophenyl)piperazin-1-yl]carbonyl}benzyl)-5,6,7,8-tetrahydrophthalazin-1(2H)-one], the Ki was found to be 13 nM.

`O=C(NCCc1ccc(C(F)(F)F)cc1)c1cccc(Cc2n[nH]c(=O)c3c2CCCC3)c1` [Example 395, 3-((4-oxo-3,4,5,6,7,8-hexahydrophthalazin-1-yl)methyl)-N-(2-(4-(trifluoromethyl)phenyl)ethyl)benzamide]: the Ki came out at 38 nM.

`COc1ccc(S(=O)(=O)N2CCN(C(=O)c3cc(Cc4n[nH]c(=O)c5c4CCCC5)ccc3F)CC2)cc1` [Example 620, 4-[4-fluoro-3-({4-[(4-methoxyphenyl)sulfonyl]piperazin-1-yl}carbonyl)benzyl]-5,6,7,8-tetrahydrophthalazin-1(2H)-one]: the Ki stood at 2.2 nM.

For `CCN(CCNC(=O)c1ccccc1)C(=O)c1cc(Cc2n[nH]c(=O)c3c2CCCC3)ccc1F` [Example 742, N-[2-(benzoylamino)ethyl]-N-ethyl-2-fluoro-5-[(4-oxo-3,4,5,6,7,8-hexahydrophthalazin-1-yl)methyl]benzamide], the Ki came out at 1.8 nM.

Turning to `O=C(COCc1ccccc1)Nc1cccc(Cc2n[nH]c(=O)c3c2CCCC3)c1` [Example 142, 2-(benzyloxy)-N-(3-((4-oxo-3,4,5,6,7,8-hexahydrophthalazin-1-yl)methyl)phenyl)acetamide], the Ki came out at 11 nM.

As to `CC(C)n1nnc2cc(C(=O)N3CCCN(C(=O)c4cc(Cc5n[nH]c(=O)c6c5NCCC6)ccc4F)CC3)ccc21` [Example 690, 8-[4-fluoro-3-({4-[(1-isopropyl-1H-1,2,3-benzotriazol-5-yl)carbonyl]-1,4-diazepan-1-yl}carbonyl)benzyl]-2,3,4,6-tetrahydropyrido[2,3-d]pyridazin-5(1H)-one], the Ki is 2.4 nM.

For the compound `Cc1nc2cc(C(=O)N3CCN(C(=O)c4cc(Cc5n[nH]c(=O)c6c5CCCC6)ccc4F)CC3)ccc2[nH]1` [Example 754, 4-[4-fluoro-3-({4-[(2-methyl-1H-benzimidazol-5-yl)carbonyl]piperazin-1-yl}carbonyl)benzyl]-5,6,7,8-tetrahydrophthalazin-1(2H)-one], the Ki came out at 0.6 nM.

Consider `O=C1CCCN1c1cccc(CCc2n[nH]c(=O)c3c2CCCC3)c1` [Example 262, 4-(2-(3-(2-oxopyrrolidin-1-yl)phenyl)ethyl)-5,6,7,8-tetrahydrophthalazin-1(2H)-one], for which the Ki came to 304 nM.

`NC(=O)C1(C(=O)Nc2cccc(Cc3n[nH]c(=O)c4c3CCCC4)c2)CC1` [Example 141]: the Ki was 77 nM.

`CC1(C)SCN[C@@H]1C(=O)N1CCN(C(=O)c2cc(Cc3n[nH]c(=O)c4c3CCCC4)ccc2F)CC1` [Example 677, 4-{3-[(4-{[(4R)-5,5-dimethyl-1,3-thiazolidin-4-yl]carbonyl}piperazin-1-yl)carbonyl]-4-fluorobenzyl}-5,6,7,8-tetrahydrophthalazin-1(2H)-one]: the Ki came to 1.5 nM.

In the case of `CC(Cc1n[nH]c(=O)c2c1CCCC2)c1ccc(F)c(-c2cccc(C(=O)NC3CC3)c2)c1` (stereo not shown) [Example 277, N-cyclopropyl-2′-fluoro-5′-(1-methyl-2-(4-oxo-3,4,5,6,7,8-hexahydrophthalazin-1-yl)ethyl)-1,1′-biphenyl-3-carboxamide], the Ki stood at 436 nM.

Regarding `O=C(Nc1ccc(Cc2n[nH]c(=O)c3c2CCCC3)cn1)c1ccncc1` [Example 107, N-(5-((4-oxo-3,4,5,6,7,8-hexahydrophthalazin-1-yl)methyl)pyridin-2-yl)isonicotinamide], the Ki stood at 216 nM.

Regarding `CCN(CCN)C(=O)c1cc(Cc2n[nH]c(=O)c3c2CCCC3)ccc1F` [Example 719, N-(2-aminoethyl)-N-ethyl-2-fluoro-5-[(4-oxo-3,4,5,6,7,8-hexahydrophthalazin-1-yl)methyl]benzamide], the Ki was 7 nM.
